Like-named read-outs stand apart in the source and are kept apart here.
Legend:
hM1 = biological target: T1, hM1 (Homo sapiens, UniProt P11229); experiment: Competitive [3H]NMS radioligand binding, CHO-hM1 cell membranes; conditions: inhibition of [3H]NMS binding, CHO-hM1 membranes; read-out: Affinity: Ki ± SD, hM1
T1 construct: host or cells: CHO-K1, stably transfected
T1 sequence (P11229 1-460): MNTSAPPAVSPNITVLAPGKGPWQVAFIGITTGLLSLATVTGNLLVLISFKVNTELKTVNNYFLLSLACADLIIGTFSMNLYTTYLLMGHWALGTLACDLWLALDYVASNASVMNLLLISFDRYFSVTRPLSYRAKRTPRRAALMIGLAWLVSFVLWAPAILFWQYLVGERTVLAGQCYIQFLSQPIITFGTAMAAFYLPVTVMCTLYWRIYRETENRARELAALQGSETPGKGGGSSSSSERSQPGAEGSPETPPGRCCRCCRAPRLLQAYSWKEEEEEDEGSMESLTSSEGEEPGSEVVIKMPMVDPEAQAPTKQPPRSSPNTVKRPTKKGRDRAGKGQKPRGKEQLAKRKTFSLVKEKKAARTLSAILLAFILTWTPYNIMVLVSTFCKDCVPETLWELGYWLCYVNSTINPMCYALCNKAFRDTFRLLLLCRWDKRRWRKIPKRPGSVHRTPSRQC
Protocol: (§1) We first assessed the carbamates’ affinities for human muscarinic acetylcholine receptors subtypes hM1–5 by means of a competitive radioligand binding assay displacing [N-methyl-^3H]scopolamine methyl chloride ([^3H]NMS) in cell membranes expressing the individual receptors.
(§2) Cell membranes bearing hM1-hM5 receptors were prepared as described previously. Briefly, stably transfected CHO-K1 cells were grown to at least 80% confluency in T175 flasks, washed with ice-cold DPBS, and scraped into a mixture of ice-cold of 2 mL 10 mM Tris-HCl, 1 mM EDTA-buffer, pH 7.4 and 200 µL protease inhibitor. A cell homogenate was prepared by passing the cell suspension through a G29 needle. The cell homogenates corresponding to two T175 flasks were combined and subsequently centrifuged (10 min, 1000 × g, 4 °C). Ultracentrifugation of the supernatant (1 h, 100,000 × g, 4 °C) yielded a membrane pellet, which was suspended in 250 µL 50 mM Tris-HCl buffer, pH 7.4 and stored at −80 °C.
(§3) Maximum binding was measured by using 5 µL DMSO, and nonspecific binding was measured by using 5 µL of 1 µM scopolamine in DMSO. […] The membrane-bound radioactivity was recovered by filtration through Whatman™ GF/B glass fibre filters pre-soaked in aqueous 0.1% PEI using an M-36 tygon tubed cell harvester (Brandel®, Gaithersburg, MD, USA). Membranes were washed 3 times with ice-cold washing buffer (50 mM Tris, pH 7.4) before being dried, transferred to 2 mL scintillation cocktail (UltimaGold™, high flashpoint LSC cocktail, PerkinElmer, Waltham, MA, USA) and counted in a β -counter (Hidex TDCR Liquid Scintillation Counter in CPM mode). IC50 values were calculated by a variable slope logistic regression using at least five distinct concentrations of test compounds, pipetted in triplicates.

hM2 = biological target: T2, hM2 (Homo sapiens, UniProt P08172); experiment: Competitive [3H]NMS radioligand binding, CHO-hM2 cell membranes; conditions: for Ki: read-out: Affinity: Ki ± SD, hM2
T2 construct: host or cells: CHO-K1, stably transfected
T2 sequence (P08172 1-466): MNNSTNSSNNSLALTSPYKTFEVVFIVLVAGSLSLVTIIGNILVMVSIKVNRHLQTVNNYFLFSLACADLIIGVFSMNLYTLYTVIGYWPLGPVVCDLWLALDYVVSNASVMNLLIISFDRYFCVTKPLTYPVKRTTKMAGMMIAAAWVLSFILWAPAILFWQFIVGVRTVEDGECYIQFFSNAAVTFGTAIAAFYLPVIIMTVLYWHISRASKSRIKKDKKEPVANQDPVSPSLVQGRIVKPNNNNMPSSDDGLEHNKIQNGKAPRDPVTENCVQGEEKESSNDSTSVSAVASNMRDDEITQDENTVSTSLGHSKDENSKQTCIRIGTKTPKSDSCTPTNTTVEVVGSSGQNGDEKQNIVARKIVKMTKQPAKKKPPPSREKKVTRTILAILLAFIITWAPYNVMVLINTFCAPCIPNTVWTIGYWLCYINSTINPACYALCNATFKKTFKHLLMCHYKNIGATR
Protocol: as §1, §2, §3

hM3 = biological target: T3, hM3 (Homo sapiens, UniProt P20309); experiment: Competitive [3H]NMS radioligand binding, CHO-hM3 cell membranes; conditions: for Ki: read-out: Affinity: Ki ± SD, hM3
T3 construct: host or cells: CHO-K1, stably transfected
T3 sequence (P20309 whole entry): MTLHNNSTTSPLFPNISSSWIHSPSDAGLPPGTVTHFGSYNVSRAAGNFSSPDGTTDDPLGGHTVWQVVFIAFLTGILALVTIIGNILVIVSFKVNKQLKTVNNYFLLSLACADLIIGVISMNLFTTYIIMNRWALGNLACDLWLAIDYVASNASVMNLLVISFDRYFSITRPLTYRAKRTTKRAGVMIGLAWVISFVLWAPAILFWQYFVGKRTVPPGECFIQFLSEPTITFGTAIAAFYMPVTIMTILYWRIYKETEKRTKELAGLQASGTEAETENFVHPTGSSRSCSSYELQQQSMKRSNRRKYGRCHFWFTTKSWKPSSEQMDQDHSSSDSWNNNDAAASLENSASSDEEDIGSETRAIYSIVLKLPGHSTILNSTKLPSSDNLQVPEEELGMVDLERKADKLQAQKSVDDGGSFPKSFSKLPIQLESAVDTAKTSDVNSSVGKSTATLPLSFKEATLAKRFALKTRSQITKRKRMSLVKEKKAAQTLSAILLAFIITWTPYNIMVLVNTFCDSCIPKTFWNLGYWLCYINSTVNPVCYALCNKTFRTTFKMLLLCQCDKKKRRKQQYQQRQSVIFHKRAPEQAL
Protocol: as §1, §2, §3

hM4 = biological target: T4, hM4 (Homo sapiens, UniProt P08173); experiment: Competitive [3H]NMS radioligand binding, CHO-hM4 cell membranes; conditions: for Ki: inhibition of [3H]NMS binding, CHO-hM4 membranes, read-out: Affinity: Ki ± SD, hM4
T4 construct: host or cells: CHO-K1, stably transfected
T4 sequence (P08173 1-479): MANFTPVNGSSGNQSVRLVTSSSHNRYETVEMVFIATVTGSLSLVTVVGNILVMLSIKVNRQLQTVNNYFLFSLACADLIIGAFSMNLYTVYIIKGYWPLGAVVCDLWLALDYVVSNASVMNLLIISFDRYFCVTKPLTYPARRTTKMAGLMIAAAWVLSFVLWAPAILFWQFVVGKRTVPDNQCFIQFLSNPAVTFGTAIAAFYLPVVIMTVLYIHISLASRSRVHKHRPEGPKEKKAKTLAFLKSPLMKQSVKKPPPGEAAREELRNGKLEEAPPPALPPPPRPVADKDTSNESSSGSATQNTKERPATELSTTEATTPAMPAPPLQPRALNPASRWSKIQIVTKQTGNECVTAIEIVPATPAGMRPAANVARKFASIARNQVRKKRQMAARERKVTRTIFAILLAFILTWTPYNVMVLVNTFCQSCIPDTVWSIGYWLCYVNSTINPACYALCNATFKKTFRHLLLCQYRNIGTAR
Protocol: as §1, §2, §3

hM5 = biological target: T5, hM5 (Homo sapiens, UniProt P08912); experiment: Competitive [3H]NMS radioligand binding, CHO-hM5 cell membranes; conditions: for Ki: inhibition of [3H]NMS binding, CHO-hM5 membranes, read-out: Affinity: Ki ± SD, hM5
T5 construct: host or cells: CHO-K1, stably transfected
T5 sequence (P08912 1-532): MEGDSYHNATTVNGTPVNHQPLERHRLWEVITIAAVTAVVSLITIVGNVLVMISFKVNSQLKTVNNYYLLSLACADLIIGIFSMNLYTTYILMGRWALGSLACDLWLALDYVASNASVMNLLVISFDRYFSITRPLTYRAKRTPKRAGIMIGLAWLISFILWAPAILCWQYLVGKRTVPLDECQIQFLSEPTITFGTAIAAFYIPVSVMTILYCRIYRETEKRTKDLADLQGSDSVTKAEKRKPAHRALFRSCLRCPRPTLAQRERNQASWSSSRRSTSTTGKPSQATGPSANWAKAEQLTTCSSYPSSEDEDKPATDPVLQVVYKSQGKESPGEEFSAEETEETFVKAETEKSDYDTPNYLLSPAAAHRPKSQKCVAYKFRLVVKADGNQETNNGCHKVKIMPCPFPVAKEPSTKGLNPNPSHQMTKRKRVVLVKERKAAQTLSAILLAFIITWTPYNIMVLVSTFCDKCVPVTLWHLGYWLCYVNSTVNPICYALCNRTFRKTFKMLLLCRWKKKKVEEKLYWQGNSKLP
Protocol: as §1, §2, §3

physchem = conditions: pH 7.4
Protocol: (§4) Briefly, a mixture of toluene (≥98%, Sigma-Aldrich, St. Louis, MO, USA) and triphenylene (≥99.9%, Carl Roth, Karlsruhe, Germany) was used as internal standard. Each sample was dissolved in the internal standard mixture. Using gradient elution, the injection volume was set to 7 µL, the flow rate was 1.5 mL/min, and the mobile phase consisted of a mixture of methanol and 0.01 M sodium phosphate buffer pH 7.4. The HPLC-logD values were derived from the measured retention times following the previously published equation [27, 30].

[1] = High throughput HPLC-logD (lipophilicity); conditions: pH 7.4
Protocol: as §4

x-Fold selectivity for hM1 vs. hM2 (hM2; ratio of Ki values hM2/hM1)	Ki (hM2)	x-Fold selectivity for hM1 vs. hM3 (hM3; ratio of Ki values hM3/hM1)	Ki (hM3)	x-Fold selectivity for hM1 vs. hM4 (hM4; ratio of Ki values hM4/hM1)	x-Fold selectivity for hM1 vs. hM5 (hM5; ratio of Ki values hM5/hM1)	melting point	chromatographic logD [1]	SMILES	Ki (hM1)	Ki (hM2; inhibition of [3H]NMS binding, CHO-hM2 membranes, >1000 values from two independent experiments)	Ki (hM3; inhibition of [3H]NMS binding, CHO-hM3 membranes, >1000 values from two independent experiments)	Ki (hM4)	Ki (hM5)	chromatographic logD (physchem)
								CN1C2CCCC1CC(NC(=O)OC(c1ccc(F)cc1)c1ccc(F)cc1)C2 [Compound 8, Bis(4-fluorophenyl)methyl ((1R,3s,5S)-9-methyl-9-azabicyclo[3.3.1]nonan-3-yl)carbamate]	475 ± 88.5 nM	624 ± 104 nM	> 1000 nM	563 ± 73.4 nM	521 ± 173 nM	3.21 ± 0.03
10.6 fold	722 ± 101 nM	2.7 fold	181 ± 68.1 nM	2.1 fold	1.0 fold	84 to 86 °C	2.8 ± 0.1	CN1CCC(NC(=O)OC(c2ccc(F)cc2)c2ccc(F)cc2)C1 (centres unmarked) [Compound 9, Bis(4-fluorophenyl)methyl (1-methylpyrrolidin-3-yl)carbamate]	67.8 ± 5.4 nM			144 ± 37.3 nM	64.5 ± 22.8 nM	

Reference: publication PMC8879200, “Design, Synthesis, and Biological Evaluation of 4,4’-Difluorobenzhydrol Carbamates as Selective M1 Antagonists” (Pharmaceuticals, 2022)
